From patent US20130023504A1, “Modulation of Prostaglandin/Cyclooxygenase Metabolic Pathways” (HUNTER-FLEMING LIMITED, priority 2006, published 2013)
Several values for one entry are separate records, joined by “and”; a condition that tells them apart may be missing. Identical values can stand only once.

System: rat sensory neurones
Assay: Cisplatin-induced loss of neurite density in primary dorsal root ganglia sensory neurones (anti β-Tubulin)
Type: cell-based
Conditions: for % Control without cisplatin (neurite length) / Mean neurite length: cisplatin 3 μg/ml
Protocol: Primary cultures of dissociated dorsal root ganglia sensory neurones were incubated with 3 μg/ml cisplatin, with and without 7β-OH EPIA for 48 hours and 72 hours and the following parameters were evaluated:
neurite network density stained with an anti 8-Tubulin antibody
Rat sensory neurones were prepared according to the method described by Hall et al 1997 [Hall et al. (J. Neurosci. 1997 Apr. 15; 17(8); 2775-84]. Briefly, a female rat (15 days gestation) was killed by cervical dislocation (Rats Wistar; Janvier, Le Genest-St-lsle, France) and the foetuses removed from the uterus. Their spinal cords with the dorsal root ganglia (DRG) were removed and placed in ice-cold medium of Leibovitz (L15, Fisher 11415-049) containing Penicillin 50 UI/ml-Streptomycin 50 μg/ml (PS, 1%) and bovine serum albuminutes (BSA 1%, Sigma A6003). The DRG were recovered and dissociated by trypsinisation for 20 minutes at 37° C. (trypsin EDTA 10×, 10%, Fisher 15400054) diluted in PBS without calcium and magnesium (Fisher 2007-03). The reaction was stopped by addition of Dulbecco modified Eagle medium (DMEM, Fisher 21969-035) containing DNase I grade II (0.1 mg/ml Roche diagnostic 104159) and foetal bovine serum (FBS 10%, Fisher 10270-098). The cell suspension was triturated with a 10 ml pipette and centrifuged at 350×g for 10 minutes at room temperature. The pellet of dissociated cells was then resuspended in defined culture medium.
Viable cells were counted in a Neubauer cytometer using the trypan blue exclusion test (Sigma) and seeded at a density of 30 000 cells/well in 96 well-plates (Nunc). Wells were pre-coated with poly-L-lysine (10 μg/ml, Sigma P2636) in ultra pure sterile water (Merck Eurolab 60759.01).
Cells were allowed to adhere for 2 h and maintained in a humidified incubator at 37° C. in 5% CO2/95% air atmosphere.
After 5 days of culture, the culture medium was changed into a defined culture medium following the different conditions described below:
Test compound 7β-OH EPIA (1 nM, 10 nM and 100 nM)+cisplatin (3 μg/ml)
Reference compound NGF (10 ng/ml)+cisplatin (3 μg/ml)
Six wells per condition were carried out to assess neuronal survival. After 48 hours and 72 hours of incubation, the neuronal cells were fixed for 5 minutes in an ethanol/acetic acid solution (95%/5%) at −20° C. and rinsed 3 times in PBS.
Cell bodies of sensory neurones were labelled by monoclonal anti MAP-2 antibody (Sigma M4403) and the neurite of sensory neurones were labelled by monoclonal β-Tubulin antibody (Sigma T8660). These antibodies were diluted at 1:400 in incubation solution (PBS with 5% of FCS and 0.1% of saponin, Sigma S-7900). These antibodies specifically label neurone cell bodies and neuritis, respectively.
After 2 hours of incubation, the cells were washed in PBS and incubated with Alexa Fluor 488 goat anti mouse IgG (Molecular Probes A11001) diluted at 1:300 in incubation solution to reveal the MAP-2 and the β-Tubulin antibodies. Cell nuclei were stained with a fluorescent marker (Hoechst staining solution, SIGMA H6024, 1 μg/ml in incubation solution during 1 hour).
For each condition, 2 pictures per well (12 pictures per condition) were taken using In Cell Analyzer 1000 (Amersham Biosciences) controlled by the computer software In Cell Analyzer 1000 3.2. For the MAP-2 labelling, the magnification was ×10, for the β-Tubulin labelling, the magnification was ×20. For each labelling, all the images were taken in the same conditions.
Analysis of the number of cell bodies labelled with anti-MAP-2 antibodies, and total length of neurites labelled with anti β-Tubulin antibodies, were carried out using In Cell Analyzer 1000 3.2.Workstation software. The results were expressed in percentage compared to the vehicle. The comparisons of each group were carried out using the unpaired T test.

Structure (SMILES): CC12CCC3C(C1CCC2=O)[C@@H](O)C[C@H]1C[C@@H](O)CCC31C (stereo partly drawn) [Compound 7β-OH-EPIA, 7β-hydroxy-EPIAndrosterone]
- reduction of cisplatin-induced toxicity (neurite loss) (1 nM, 48 hours): 90.7%
- reduction of cisplatin-induced toxicity (neurite loss) (1 nM, 72 hours): 70.8%
- % Control without cisplatin (neurite length) (1 nM, 48 hours): 99%
- Mean neurite length (1 nM, 48 hours): 5378 μm and 5377.89 μm
- % Control without cisplatin (neurite length) (1 nM, 72 hours): 93%
- Mean neurite length (1 nM, 72 hours): 4948 μm and 4947.99 μm
- reduction of cisplatin-induced toxicity (neurite loss) (10 nM, 48 hours): 101%
- % Control without cisplatin (neurite length) (10 nM, 48 hours): 102%
- Mean neurite length (10 nM, 48 hours): 5549 μm and 5549.41 μm
- % Control without cisplatin (neurite length) (10 nM, 72 hours): 80%
- Mean neurite length (10 nM, 72 hours): 4275.04 μm
- % Control without cisplatin (neurite length) (100 nM, 48 hours): 81%
- Mean neurite length (100 nM, 48 hours): 4442.51 μm
- % Control without cisplatin (neurite length) (100 nM, 72 hours): 77%
- Mean neurite length (100 nM, 72 hours): 4080.89 μm
